Reference: US8563744B2, “3-amino-benzo [D] isothiazole dioxide derivatives and their use as pesticides” (Syngenta Crop Protection, LLC, priority 2008, dated 2013)

Tests used:
Assay type in all cases: in vivo
Myzus persicae [1] = experiment: B3: Myzus persicae (green peach aphid), mixed population, systemic/feeding activity, curative; conditions: 144 h, roots of infested pea seedlings placed in test solutions of 24 ppm, 6 days after introduction, read-out: control of Myzus persicae (mortality)
Excerpt: B3: Myzus persicae (green peach aphid) (mixed population, systemic/feeding activity, curative)
Roots of pea seedlings, infested with an aphid population of mixed ages, are placed directly in the test solutions of 24 ppm. 6 days after introduction, samples are checked for mortality and special effects on the plant.

Myzus persicae [2] = experiment: B2: Myzus persicae (green peach aphid), mixed population, feeding/residual contact activity, preventive; conditions: foliar, 144 h, sunflower leaf discs sprayed with test solutions of 200 ppm, aphid population of mixed ages, 6 days incubation, read-out: control of Myzus persicae (mortality)
Protocol: B2: Myzus persicae (green peach aphid) (mixed population, feeding/residual contact activity, preventive)
Sunflower leaf discs are placed on agar in a 24-well microtiter plate and sprayed with test solutions of 200 ppm. After drying, the leaf discs are infested with an aphid population of mixed ages. After an incubation period of 6 days, samples are checked for mortality and special effects (e.g. phytotoxicity).

Myzus persicae [3] = experiment: B1: Myzus persicae (green peach aphid), mixed population, sachet test; conditions: 144 h, 12.5 ppm test compound in 30% sucrose solution, parafilm sachet, 6 days after infestation, read-out: control of Myzus persicae (mortality, feeding activity)
Protocol: B1: Myzus persicae (green peach aphid) (mixed population, sachet test)
Each well of a 24-well microtiter plate is filled with 0.6 ml 30% sucrose solution, containing 12.5 ppm of the test compounds. For producing the sachets, the wells are covered with streched parafilm and infested with a mixed population of Myzus persicae. 6 days after the infestation, samples are checked for mortality (feeding activity).

Row | SMILES | mortality at 24 ppm (Myzus persicae [1]) | mortality at 200 ppm (Myzus persicae [2]) | mortality at 12.5 ppm (Myzus persicae [3])
1 | CNC1=NS(=O)(=O)c2c(F)cccc21 [Compound P1.15, (7-Fluoro-1,1-dioxo-1H-1λ^6-benzo[d]isothiazol-3-yl)-methyl-amine] | ≥ 80% | ≥ 80% | 
2 | NC1=NS(=O)(=O)c2c(Br)cccc21 [Compound P1.1, 7-bromo-1,1-dioxo-1H-1λ^6-benzo[d]isothiazol-3-ylamine] | ≥ 80% | ≥ 80% | 
3 | CC(C)N1C(=N)c2cccc(Br)c2S1(=O)=O [Compound P2.1, 7-bromo-2-isopropyl-1,1-dioxo-1,2-dihydro-1λ^6-benzo[d]isothiazol-3-ylideneamine] |  |  | ≥ 80%
